Here are results for 1 molecule from US9981999B2, “Neprilysin inhibitors” (THERAVANCE BIOPHARMA R&D IP, LLC, priority 2012, dated 2018).

The structures appear in SMILES notation.

In this assay the target is T1, human neprilysin (EC 3.4.24.11; NEP) (Homo sapiens, UniProt P08473).
T1 construct: purchased R&D Systems, Minneapolis, MN 1182-ZN
In words: In vitro enzyme inhibition assay at human NEP (fluorogenic peptide substrate). It is filed as biochemical. To be noted: recombinant human NEP; fluorogenic substrate Mca-D-Arg-Arg-Leu-Dap-(Dnp)-OH; 37° C., pH 7.5; read-out: pKi value at human NEP (converted). How it is done:
The inhibitory activities of compounds at human and rat neprilysin (EC 3.4.24.11; NEP) and human angiotensin converting enzyme (ACE) were determined using in vitro assays as described below.
Recombinant human NEP and recombinant human ACE were obtained commercially (R&D Systems, Minneapolis, MN, catalog numbers 1182-ZN and 929-ZN, respectively). The fluorogenic peptide substrate Mca-D-Arg-Arg-Leu-Dap-(Dnp)-OH (Medeiros et al. (1997) Braz. J. Med. Biol. Res. 30:1157-62; Anaspec, San Jose, Calif.) and Abz-Phe-Arg-Lys(Dnp)-Pro-OH (Araujo et al. (2000) Biochemistry 39:8519-8525; Bachem, Torrance, Calif.) were used in the NEP and ACE assays respectively.
The assays were performed in 384-well white opaque plates at 37° C. using the fluorogenic peptide substrates at a concentration of 10 µM in Assay Buffer (NEP: 50 mM HEPES, pH 7.5, 100 mM NaCl, 0.01% polyethylene glycol sorbitan monolaurate (Tween-20), 10 μM ZnSO4; ACE: 50 mM HEPES, pH 7.5, 100 mM NaCl, 0.01% Tween-20, 1 μM ZnSO4).
Test compounds were assayed over the range of concentrations from […] to 20 μM. Test compounds were added to the enzymes and incubated for 30 minute at 37° C. prior to initiating the reaction by the addition of substrate. […]
Plates were read on a fluorometer with excitation and emission wavelengths set to 320 nm and 405 nm, respectively. […]

T1 sequence (P08473 52-750 limits assumed): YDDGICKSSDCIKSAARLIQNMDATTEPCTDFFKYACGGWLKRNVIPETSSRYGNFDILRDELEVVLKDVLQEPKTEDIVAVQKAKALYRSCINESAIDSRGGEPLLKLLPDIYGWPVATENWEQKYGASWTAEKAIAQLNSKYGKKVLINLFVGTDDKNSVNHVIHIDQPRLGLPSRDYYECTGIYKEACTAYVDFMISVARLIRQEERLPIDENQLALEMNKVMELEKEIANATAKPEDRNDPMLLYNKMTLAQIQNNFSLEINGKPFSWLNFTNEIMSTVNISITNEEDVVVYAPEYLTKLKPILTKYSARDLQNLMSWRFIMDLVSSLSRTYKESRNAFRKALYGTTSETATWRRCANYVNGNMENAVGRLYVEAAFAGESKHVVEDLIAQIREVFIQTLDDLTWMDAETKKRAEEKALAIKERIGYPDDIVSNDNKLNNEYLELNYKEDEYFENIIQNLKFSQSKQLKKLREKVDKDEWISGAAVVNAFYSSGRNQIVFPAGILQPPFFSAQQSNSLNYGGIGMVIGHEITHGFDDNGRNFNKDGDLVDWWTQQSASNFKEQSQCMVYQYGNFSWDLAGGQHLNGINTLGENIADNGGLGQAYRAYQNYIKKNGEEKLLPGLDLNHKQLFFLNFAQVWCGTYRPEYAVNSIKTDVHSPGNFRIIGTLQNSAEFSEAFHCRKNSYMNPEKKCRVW

For the molecule `CC(=O)c1cc(C(=O)NN(Cc2ccc(-c3cc(Cl)ccc3F)cc2)C[C@@H](O)C(=O)O)[nH]n1` [Example 6A, (R)-3-[N′-(5-Acetyl-2H-pyrazole-3-carbonyl)-N-(5′-chloro-2′-fluorobiphenyl-4-ylmethyl)hydrazino]-2-hydroxypropionic Acid], the Ki was no more than 1 nM.
